Measurements: patent US5244898A, “Benzoheterocyclic compounds” (Otsuka Pharmaceutical Co., Ltd., priority 1991, dated 1993)
Counter-ions that a name gives are not always drawn.

How the values were obtained:
[1] = target: V1 Receptor (Rattus norvegicus, UniProt P30560); experiment: V1 Receptor Binding Assay ([3H]-Arg-vasopressin, rat liver plasma membrane); conditions: 37° C., 10 minutes, pH 8.0
Description: After incubation, the mixture is filtered three times using the glass filter (GF/F) so as to separate the membrane preparation combining with vasopressin and then washed with the buffer (5 ml). This glass filter is taken out and mixed with liquid scintillation cocktail. The amount of [^3 H]-vasopressin combining with the membrane is measured by liquid scintillation counter and the rate of the inhibitory effect of the test compound is estimated according to the following equation.
(§1) C1 : The amount of [^3 H]-vasopressin combining with the membrane in the presence of the test compound of a known amount.
(§2) C0 : The amount of [^3 H]-vasopressin combining with the membrane in the absence of the test compound.
B1 : The amount of [^3 H]-vasopressin combining with the membrane in the presence of the excess amount of vasopressin (10^-6 M).
(§3) The results are expressed as IC50 value, which is the concentration of the test compound required to achieve the inhibitory effect in the rate of 50%.

[2] = target: T1, V2 Receptor (Rattus norvegicus, UniProt Q00788); experiment: V2 Receptor Binding Assay ([3H]-Arg-vasopressin, rat kidney plasma membrane); conditions: 4° C., pH 8.0
T1 construct: rat kidney plasma membrane preparations; from tissue; host or cells: rat kidney plasma membranes
T1 sequence (Q00788 whole entry): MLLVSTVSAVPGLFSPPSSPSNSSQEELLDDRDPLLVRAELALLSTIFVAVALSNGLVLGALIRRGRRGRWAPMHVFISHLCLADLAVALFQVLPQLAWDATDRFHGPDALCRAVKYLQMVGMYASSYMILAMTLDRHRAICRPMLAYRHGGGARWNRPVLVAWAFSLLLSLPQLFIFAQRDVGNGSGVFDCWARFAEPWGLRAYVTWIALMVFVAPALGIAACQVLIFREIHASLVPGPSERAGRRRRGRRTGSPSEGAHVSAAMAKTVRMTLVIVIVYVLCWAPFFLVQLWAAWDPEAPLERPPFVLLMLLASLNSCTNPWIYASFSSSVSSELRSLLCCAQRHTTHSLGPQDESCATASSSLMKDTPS
Description: Chem., 253, 3211 (1978)], the plasma membrane (100000 dpm, 4×10^-10M) of [^3 H]-Arg-vasopressin and a test compound (0.6 mg, 10^-10 -10^-5 M) are incubated at 4° C. for 3 hours in 100 mM Tris-HCl buffer pH: 8.0 (250 μl ) containing 5 mM MgCl2, 1 mM EDTA and 0.1 % BSA. After incubation, the mixture is filtered using the glass filter (GF/F) so as to separate the membrane preparation combining with vasopressin and then washed twice with the buffer (5 ml). This glass filter is taken out and mixed with liquid scintillation cocktail. The amount of [^3 H]-vasopressin combining with the membrane is measured by liquid scintillation counter and the rate of the inhibitory effect of the test compound is estimated according to the following equation. [formula]
as §1, §2
B1 : The amount of [3H-vasopressin combining with the membrane in the presence of the excess amount of vasopressin (10^-6 M).
as §3

Chain of V1 Receptor (P30560 whole entry): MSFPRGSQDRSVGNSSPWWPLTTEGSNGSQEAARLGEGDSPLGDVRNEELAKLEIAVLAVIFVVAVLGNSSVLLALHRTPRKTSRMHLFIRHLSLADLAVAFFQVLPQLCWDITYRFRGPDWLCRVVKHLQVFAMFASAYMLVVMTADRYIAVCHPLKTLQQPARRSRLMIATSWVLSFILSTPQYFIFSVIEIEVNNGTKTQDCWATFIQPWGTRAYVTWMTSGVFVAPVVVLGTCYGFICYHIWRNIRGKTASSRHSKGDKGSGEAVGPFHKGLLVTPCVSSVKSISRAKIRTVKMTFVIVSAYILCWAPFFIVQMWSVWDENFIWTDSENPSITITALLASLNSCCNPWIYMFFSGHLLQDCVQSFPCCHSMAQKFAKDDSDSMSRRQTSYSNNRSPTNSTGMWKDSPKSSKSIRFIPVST

SMILES | IC50 [1] [nM] | IC50 [2] [nM]
COc1cc(NC(=O)Cc2ccccc2C)ccc1C(=O)N1CCCC(O)c2cc(Cl)ccc21 (stereo not drawn) [Test Compound 18, 5-Hydroxy-7-chloro-1-{2-methoxy-4-[2-(2-methylphenyl)acetylamino]benzoyl}-2,3,4,5-tetrahydro-1H-benzazepine] | 55 | 4
COCC(=O)OC1CCCN(C(=O)c2ccc(NC(=O)c3ccccc3C)cc2)c2ccc(Cl)cc21 (stereo not drawn) [Test Compound 24, 5-(2-Methoxyacetyloxy)-7-chloro-1-[4-(2-methylbenzoylamino)benzoyl]-2,3,4,5-tetrahydro-1H-benzazepine] | 18 | 7
Cc1ccccc1C(=O)Nc1ccc(C(=O)N2CCCC(COC(=O)CN(C)C)c3cc(Cl)ccc32)cc1 (stereo not drawn) [Test Compound 25, 5-[2-(Dimethylaminoacetyloxy)methyl]-7-chloro-1-[4-(2-methylbenzoylamino)benzoyl]-2,3,4,5-tetrahydro-1H-benzazepine hydrochloride] | 21 | 4
CCOC(=O)CC1CCCN(C(=O)c2ccc(NC(=O)c3ccccc3C)cc2OC)c2ccc(Cl)cc21 (stereo not drawn) [Test Compound 26, 5-Ethoxycarbonylmethyl-7-chloro-1-[2-methoxy-4-(2-methylbenzoylamino)benzoyl]-2,3,4,5-tetrahydro-1H-benzazepine] | 77 | 9
COc1cc(C(=O)N2CCCC(CC(=O)N3CCN(C)CC3)c3cc(Cl)ccc32)ccc1NC(=O)c1ccccc1C (stereo not drawn) [Test Compound 27, 5-[(4-Methyl-1-piperazinyl)carbonylmethyl]-7-chloro-1-[3-methoxy-4-(2-methylbenzoylamino)benzoyl]-2,3,4,5-tetrahydro-1H-benzazepine] | 34 | 7
CCOc1cc(NC(=O)c2ccccc2Cl)ccc1C(=O)N1CCCC(CC(N)=O)c2cc(Cl)ccc21 (stereo not drawn) [Test Compound 28, 5-Carbamoylmethyl-7-chloro-1-[2-ethoxy-4-(2-chlorobenzoylamino)benzoyl]-2,3,4,5-tetrahydro-1H-benzazepine] | 30 | 2
COc1cc(NC(=O)c2ccccc2C)ccc1C(=O)N1CCCC(OC(=O)[C@@H](N)CCCCN)c2cc(Cl)ccc21 (stereo partly drawn) [Test Compound 29, 5-(L-Lysyloxy)-7-chloro-1-[2-methoxy-4-(2-methylbenzoylamino)benzoyl]-2,3,4,5-tetrahydro-1H-benzazepine dihydrochloride] | 40 | 6
COc1cc(C(=O)N2CCCC(CC(=O)NC3CCNCC3)c3cc(Cl)ccc32)ccc1NC(=O)c1ccccc1C (stereo not drawn) [Test Compound 30, 5-[(4-Piperidinyl)aminocarbonylmethyl]-7-chloro-1-[3-methoxy-4-(2-methylbenzoylamino)benzoyl]-2,3,4,5-tetrahydro-1H-benzazepine hydrochloride] | 31 | 9
COc1cc(C(=O)N2CCCC(CC(=O)N(C)C)c3cc(Cl)ccc32)ccc1NC(=O)c1ccccc1C (stereo not drawn) [Test Compound 32, 5-Dimethylaminocarbonylmethyl-7-chloro-1-[3-methoxy-4-(2-methylbenzoylamino)benzoyl]-2,3,4,5-tetrahydro-1H-benzazepine] | 11 | 4
Cc1ccccc1C(=O)Nc1ccc(C(=O)N2CCCC(=CCCN(C)C)c3cc(F)ccc32)c(Cl)c1 [Test Compound 33, 5-(3-Dimethylaminopropylidene)-7-fluoro-1-[2-chloro-4-(2-methylbenzoylamino)benzoyl]-2,3,4,5-tetrahydro-1H-benzazepine hydrochloride] | 84 | 2
COc1cc(NC(=O)c2ccccc2C)ccc1C(=O)N1CCCC(OCCN2CCCC2)c2cc(Cl)ccc21 (stereo not drawn) [Test Compound 34, 5-[2-(1-Pyrrolidinyl)ethoxy]-7-chloro-1-[2-methoxy-4-(2-methylbenzoylamino)benzoyl]-2,3,4,5-tetrahydro-1H-benzazepine hydrochloride] | 9 | 6
COc1cc(NC(=O)c2ccccc2C)ccc1C(=O)N1CCCC(OCCCOS(=O)(=O)c2ccc(C)cc2)c2cc(Cl)ccc21 (stereo not drawn) [Test Compound 37, 5-[3-(p-Toluenesulfonyloxy)propoxy]-7-chloro-1-[2-methoxy-4-(2-methylbenzoylamino)benzoyl]-2,3,4,5-tetrahydro-1H-benzazepine] | 210 | 5.4
Cc1ccccc1C(=O)Nc1ccc(C(=O)N2CCCC(C#N)c3cc(Cl)ccc32)cc1Cl (stereo not drawn) [Test Compound 38, 5-Cyano-7-chloro-1-[3-chloro-4-(2-methylbenzoylamino)benzoyl]-2,3,4,5-tetrahydro-1H-benzazepine] | 160 | 150
COc1cc(C(=O)N2CCCC(CC#N)c3cc(Cl)ccc32)ccc1NC(=O)c1ccccc1C (stereo not drawn) [Test Compound 39, 5-Cyanomethyl-7-chloro-1-[3-methoxy-4-(2-methylbenzoylamino)benzoyl]-2,3,4,5-tetrahydro-1H-benzazepine] | 44 | 14
COc1cc(NC(=O)c2ccccc2C)ccc1C(=O)N1CCCC(OCCN2CCN(C(C)=O)CC2)c2cc(Cl)ccc21 (stereo not drawn) [Test Compound 40, 5-[2-(4-Acetyl-1-piperazinyl)ethoxy]-7-chloro-1-[2-methoxy-4-(2-methylbenzoylamino)benzoyl]-2,3,4,5-tetrahydro-1H-benzazepine hydrochloride] | 73 | 7
CNC(=O)CC1CCCN(C(=O)c2ccc(NC(=O)c3ccccc3C)cc2OC)c2ccc(F)cc21 (stereo not drawn) [Test Compound 42, 5-Methylaminocarbonylmethyl-7-fluoro-1-[2-methoxy-4-(2-methylbenzoylamino)benzoyl]-2,3,4,5-tetrahydro-1H-benzazepine] | 160 | 6
COc1cc(NC(=O)c2ccccc2C)ccc1C(=O)N1CCCC(OCCN2CCNCC2)c2cc(Cl)ccc21 (stereo not drawn) [Test Compound 43, 5-[2-(1-Piperazinyl)ethoxy]-7-chloro-1-[2-methoxy-4-(2-methylbenzoylamino)benzoyl]-2,3,4,5-tetrahydro-1H-benzazepine dihydrochloride] | 70 | 6

Second part, the compound after the results:

IC50 [1] [nM] | IC50 [2] [nM] | SMILES
24 | 6 | COc1cc(NC(=O)c2ccccc2Cl)ccc1C(=O)N1CCCC(CC(=O)N2CCN(C)CC2)c2cc(Cl)ccc21 (stereo not drawn) [Test Compound 44, 5-[(4-Methyl-1-piperazinyl)carbonylmethyl]-7-chloro-1-[2-methoxy-4-(2-chlorobenzoylamino)benzoyl]-2,3,4,5-tetrahydro-1H-benzazepine hydrochloride]
8 | 4 | COc1cc(NC(=O)c2ccccc2Cl)ccc1C(=O)N1CCCC(CC(=O)N2CCC(N(C)C)CC2)c2cc(Cl)ccc21 (stereo not drawn) [Test Compound 45, 5-[(4-Dimethylamino-1-piperidinyl)carbonylmethyl]-7-chloro-1-[2-methoxy-4-(2-chlorobenzoylamino)benzoyl]-2,3,4,5-tetrahydro-1H-benzazepine hydrochloride]
89 | 9 | COc1cc(NC(=O)c2ccccc2C)ccc1C(=O)N1CCCC(CN2CCN(C)CC2)c2cc(F)ccc21 (stereo not drawn) [Test Compound 46, 5-[(4-Methyl-I-piperazinyl)methyl]-7-fluoro-1-[2-methoxy-4-(2-methylbenzoylamino)benzoyl]-2,3,4,5-tetrahydro-1H-benzazepine]
330 | 8 | COc1cc(NC(=O)c2ccccc2C)ccc1C(=O)N1CCCC(OCCN2CCN(C)CC2)c2cc(F)ccc21 (stereo not drawn) [Test Compound 47, 5-[2-(4-Methyl-1-piperazinyl)ethoxy]-7-fluoro-1-[2-methoxy-4-(2-methylbenzoylamino)benzoyl]-2,3,4,5-tetrahydro-1H-benzazepine]
37 | 12 | COc1cc(NC(=O)c2ccccc2Cl)ccc1C(=O)N1CCCC(CC(=O)NC2CCN(Cc3ccccc3)CC2)c2cc(Cl)ccc21 (stereo not drawn) [Test Compound 48, 5-[(1-Benzyl-4-piperidinyl)aminocarbonylmethyl]-7-chloro-1-[2-methoxy-4-(2-chlorobenzoylamino)benzoyl]-2,3,4,5-tetrahydro-1H-benzazepine hydrochloride]
110 | 15 | Cc1ccccc1C(=O)Nc1ccc(C(=O)N2CCCC(CC(=O)N3CCCC3)c3cc(F)ccc32)cc1 (stereo not drawn) [Test Compound 50, 5-[(1-Pyrrolidinyl)carbonylmethyl]-7-fluoro-1-[4-(2-methylbenzoylamino)benzoyl]-2,3,4,5-tetrahydro-1H-benzazepine]
18 | 3 | COc1cc(NC(=O)c2ccccc2Br)ccc1C(=O)N1CCCC(CC(=O)N(C)C)c2cc(F)ccc21 (stereo not drawn) [Test Compound 51, 5-Dimethylaminocarbonylmethyl-7-fluoro-1-[2-methoxy-4-(2-bromobenzoylamino)benzoyl]-2,3,4,5-tetrahydro-1H-benzazepine]
16 | 6 | COc1cc(NC(=O)c2ccccc2C)ccc1C(=O)N1CCCC(CC(=O)N2CCNCC2)c2cc(Cl)ccc21 (stereo not drawn) [Test Compound 52, 5-[(1-Piperazinyl)carbonylmethyl]-7-chloro-1-[2-methoxy-4-(2-methylbenzoylamino)benzoyl]-2,3,4,5-tetrahydro-1H-benzazepine hydrochloride]
54 | 4 | COc1cc(NC(=O)c2ccccc2C)ccc1C(=O)N1CCCC(CCN2CCC(N(C)C)CC2)c2cc(Cl)ccc21 (stereo not drawn) [Test Compound 54, 5-[2-(4-Dimethylamino-1-piperidinyl)ethyl]-7-chloro-1-[2-methoxy-4-(2-methylbenzoylamino)benzoyl]-2,3,4,5-tetrahydro-1H-benzazepine dihydrochloride]
62 | 12 | COc1cc(NC(=O)c2ccccc2C)ccc1C(=O)N1CCCC(CCN2CCN(C)CC2)c2cc(Cl)ccc21 (stereo not drawn) [Test Compound 55, 5-[2-(4-Methyl-1-piperazinyl)ethyl]-7-chloro-1-[2-methoxy-4-(2-methylbenzoylamino)benzoyl]-2,3,4,5-tetrahydro-1H-benzazepine dihydrochloride]
